# Assay results published in US20090312438A1, “Compositions and Methods for Attenuating the Formation of A2E in the Retinal Pigment Epithelium” (priority 2008, published 2009).
# What was measured:
# [1] = female, Japanese quail (Coturnix japonica), in vivo, 16 weeks
# Description: Tissues were homogenized and extracted three times with tetrahydrofuran containing 0.1% butylated hydroxytoluene by sonication at 5° C. to 10° C. for 30 minutes each time. The combined organic extracts were evaporated to dryness under vacuum at room temperature. The dried residue was redissolved in one ml of HPLC mobile phase and centrifuged at approximately 2000 g for 10 minutes to remove the minor amounts of insoluble solid particles prior to analysis. The majority of carotenoids in bird retinas are esterified (32), so after the initial extraction, the dried carotenoid residue was redissolved in hexane and subjected to saponification in 1.8% (w/v) methanolic potassium hydroxide (KOH) for two hours at room temperature. After saponification, the samples were washed with water until the samples achieved neutral pH. The vials were centrifuged at approximately 2000 g to remove the minor amounts of insoluble solid particles. The solution was evaporated to dryness on a rotary evaporator under reduced pressure at room temperature and reconstituted in the appropriate HPLC solvents.
# HPLC analysis was performed on a Thermo Separations (San Jose, Calif.) HPLC system with binary gradient pumps, a refrigerated autosampler, a UV6000 photodiode-array detector (PDA), and an MSQ single quadrupole mass spectrometer. […]
# [2] = extensive use in humans as dietary supplements; cited from earlier work
# [3] = test system: A2E formation in the RPE; test: Xanthophyll supplementation in Japanese quail: A2E in RPE/choroid by HPLC-MS; assay type: in vivo, Japanese quail (Coturnix japonica); details: for Rise of A2E levels from baseline levels: 16-week supplementation, P=0.1, unsupplemented control rose more than six-fold; for A2E oxidation products in mass spectra versus control group: A2E extracted from RPE, FIG. 5; for A2E levels in the RPE, control group relative to supplemented groups: FIG. 4, 16 weeks, N=4, P<0.001; for Inhibition of A2E formation relative to birds fed a control diet low in carotenoids: high dose supplementation
# Description: A2E and its isomers were extracted and isolated from RPE/choroid using a previously described method (8). RPE samples were homogenized in 1:1 CHCl3/MeOH (2 ml) and 0.01 M phosphate-buffered saline (PBS) (1 ml). The homogenizer was washed with 1:1 CHCl3/MeOH (2 ml), 0.01 M PBS (1 ml), and then CHCl3 (2 ml) and CH2Cl2 (2 ml) were added to remove any remaining material. All solutions were combined, and the organic layer was extracted from the aqueous layer. The combined organic extracts were evaporated to dryness under vacuum at room temperature. The residue was dissolved in MeOH for HPLC. The vials were centrifuged at approximately 2000 g to remove the minor amounts of insoluble solid particles prior to analysis.
# HPLC analysis was performed on a Thermo Separations (San Jose, Calif.) HPLC system with binary gradient pumps, a refrigerated autosampler, a UV6000 photodiode-array detector (PDA), and an MSQ single quadrupole mass spectrometer. Peak identities were confirmed by PDA and mass spectra and by co-elution with authentic standards as necessary. Calibration was by external standardization curves with authentic standards. […] Typical reproducibility with external standardization in our laboratory is +5%.
# A2E HPLC analysis: The dried A2E samples were redissolved in 100 μl of MeOH. A gradient of 84-100% acetonitrile (A) with 0.05% trifluoroacetic acid in H2O (B) over 35 minutes was used to separate A2E at a flow rate of 1.0 ml min^−1 on a reverse-phase C18 column (4.6×250 mm, Phenomenex, Atlanta, Ga.). The column was maintained at room temperature, and the HPLC PDA detector was operated at 440 nm.
# MS analysis was performed using a Thermo Separations (San Jose, Calif.) MSQ single quadrupole mass spectrometer, equipped with an electron spray ionization (ESI) source and an atmospheric pressure chemical ionization (APCI) source. A2E and carotenoids were ionized in positive ion ESI and APCI modes, respectively. To avoid overloading of eluted solvent molecules in the mass spectrometer and to optimize ionization conditions, 50% of the eluate was directed to waste with the help of a diverter valve after the PDA detector. The delay time from PDA to MS was 0.13 minutes. […] Selected ion monitoring (SIM) was performed using dwell time of 200 ms for each channel. In SIM mode, the m/z channels 592±3, 608±1.5, 624±1.5, and 640±1.5 were used for A2E and its oxidative products. Typical detection conditions for A2E were: RF lens bias voltage 0.1V, cone voltage 80V and heater temperature 550° C. The ion source and tuning lens parameters were optimized automatically by infusing A2E samples via the injector. For carotenoids, the m/z channels 551±0.7 and 569±0.7 were used for lutein, and 569±0.8 for zeaxanthin. Typical detection conditions were: corona discharge current 5 μA, cone voltage 80V, and probe temperature 500° C.
# Adult Japanese quail (Coturnix japonica) were procured from B&D farms (Harrah, Okla.), and all experiments were reviewed and approved by the University of Utah's Institutional Animal Care and Use Committee. The birds were kept under ambient room light on a 12-hour light-dark cycle, and they were divided into three groups of four birds: lutein supplemented, zeaxanthin supplemented, and unsupplemented. All birds were fed daily with a standard turkey diet (˜20 g/day) (Purina Mills, St. Louis, Mo.) that was low in carotenoids (1.10 ng/g). The supplemented birds were gavaged daily with 0.5 ml of a microbial extract rich in lutein or zeaxanthin for 16 weeks (0.2 mg of carotenoid per bird per day). Lutein was prepared from the freshwater alga Chlorella protothecoides CS 41 (Microalgae Supply Service, CSIRO, Hobart Australia) under conditions described earlier (36). Zeaxanthin was obtained from the non-pathogenic bacteria Flavobacterium multivorum ATCC 55238 grown on liquid growth medium as detailed earlier (37). […]
structure (smiles),measurement,setting,value
"CC1=C[C@H](O)CC(C)(C)[C@H]1/C=C/C(C)=C/C=C/C(C)=C/C=C/C=C(C)/C=C/C=C(C)/C=C/C1=C(C)C[C@@H](O)CC1(C)C [Lutein, (3R, 3′R, 6′R)-lutein]",Increase of total lutein and zeaxanthin levels (retina) relative to baseline,[1],2.8 fold
same,Rise of total retinal carotenoid levels relative to baseline,[1],1.6 fold
same,Toxicity in humans as dietary supplements,[2],no toxicity has ever been reported
same,Rise of A2E levels from baseline levels,[3],barely any rise from baseline levels
same,A2E oxidation products in mass spectra versus control group,[3],control group had higher levels of oxidation products in comparison
same,"A2E levels in the RPE, control group relative to supplemented groups",[3],significantly higher for the control group
same,Inhibition of A2E formation relative to birds fed a control diet low in carotenoids,[3],profound inhibition of A2E formation
"CC1=C(/C=C/C(C)=C/C=C/C(C)=C/C=C/C=C(C)/C=C/C=C(C)/C=C/C2=C(C)C[C@@H](O)CC2(C)C)C(C)(C)C[C@H](O)C1 [Zeaxanthin, (3R, 3′R)-zeaxanthin]",Toxicity in humans as dietary supplements,[2],no toxicity has ever been reported
same,Rise of A2E levels from baseline levels,[3],barely any rise from baseline levels
same,A2E oxidation products in mass spectra versus control group,[3],control group had higher levels of oxidation products in comparison
same,"A2E levels in the RPE, control group relative to supplemented groups",[3],significantly higher for the control group
same,Inhibition of A2E formation relative to birds fed a control diet low in carotenoids,[3],profound inhibition of A2E formation
